# Experimental data taken from EP0103381B1, “Substituted anthra(1,9-cd)pyrazol-6(2H)-ones” (WARNER-LAMBERT COMPANY, priority 1982, dated 1984).
# Like-named read-outs stand apart in the source and are kept apart here.
# Columns and labels:
# Aerobacter aerogenes = assay: agar plate paper-disc inhibition zone screening; type: cell-based; conditions: Klebsiella aerogenes, read-out: Inhibition Zone Diameter mm (Dose mg/ml) A. Aerogenes; for zone of inhibition at 3000 µg/mL: Dose 3.0 mg/ml
# Experimental: (§1) The bacterial and yeast isolates are maintained in agar slants or in liquid media, hereby designated as inoculum media. The cultures are transferred at regular intervals in such media. (See Table for the corresponding inoculum media of each culture.) The organisms are generally transferred on to agar slants or liquid inoculum media and incubated overnight (18-20 hours): 37°C for the bacterial isolates and 28°C for the fungal cultures.
# (§2) The microbial cells from the overnight agar slants are then scraped off and suspended in saline solution (0.85% NaCI). The microbial concentrations are adjusted to a light transmittancy of 20-35%, Junior Coleman Spectrophotometer (555 M). For the organisms that are maintained in liquid media, an aliquot of the culture suspension is simply diluted with saline to 20-35% light transmittancy.
# (§3) The above microbial suspension serve as inocula for the assay plates. Thus, 0.16-10 ml (see Table for exact amount) are used to inoculate 100 ml of the molten-agar assay medium.
# (§4) Stainless steel frames, 12.3 x 25.3 cm (ID) and glass plates, 15.3 x 31.7 cm are used to make the test trays. The frames are attached to the plates with tape at each end and the inner edges sealed with 2% agar. Twenty five ml of inoculated assay medium is spread evenly on each tray and allowed to solidify. The trays are covered, inverted, and refrigerated until used.
# (§5) The compounds or samples to be tested are dissolved in suitable solvents, e.g., alcohols, dimethylsulfoxide, or N,N-dimethylformamide. The samples are generally dissolved so that the final concentration of the solvent is <10%.^* The compounds are tested at different concentrations: 3,000; 1,000; 500; 100; and 10 mcg/ml. Paper discs (12.7 mm diameter) are placed on the agar trays with forceps, then 0.08 ml of the dissolved compound is pipetted onto each disc using a 0.2 ml pipette.
# (§6) The disked agar trays are incubated overnight (18-20 hours) at 37°C for the bacterial cultures and 28°C for the yeasts. The Penicillium avellaneium tray is incubated for at least […] since it is a slower- growing organism.
# (§7) Active compounds show a zone of inhibition around the disc. The diameter of the zone is measured in mm. The zone diameter of active compounds ranges from a minimum of 13.5 mm to as high as 60 mm. The size of the zone diameter generally reflects the activity of the compound: the larger the zone the greater the activity.
# Bacillus subtilis = assay: agar plate paper-disc inhibition zone screening; type: cell-based; conditions: read-out: Inhibition Zone Diameter mm (Dose mg/ml) B. Subtilis; for zone of inhibition at 1000 µg/mL: Dose 1.0 mg/ml
# Experimental: as §1, §2, §3, §4, §5, §6, §7
# Escherichia coli = assay: agar plate paper-disc inhibition zone screening; type: cell-based; conditions: read-out: Inhibition Zone Diameter mm (Dose mg/ml) E. Coli; for zone of inhibition at 3000 µg/mL: Dose 3.0 mg/ml
# Experimental: as §1, §2, §3, §4, §5, §6, §7
# Streptococcus faecalis = assay: agar plate paper-disc inhibition zone screening; type: cell-based; conditions: Enterococcus faecalis, read-out: Inhibition Zone Diameter mm (Dose mg/ml) S. Faecalis
# Experimental: as §1, §2, §3, §4, §5, §6, §7
# Penicillium avellaneum = assay: agar plate paper-disc inhibition zone screening; type: cell-based; conditions: Hamigera avellanea, read-out: Inhibition Zone Diameter mm (Dose mg/ml) P. Avellaneum
# Experimental: The Penicillium avellaneum is grown for six days, at 28°C, on an agar medium. This is to allow sporulation of the culture. The organism is then harvested by scraping off the cells from the agar surface (mycelia and spores) and suspending them in saline solution containing 0.05% Tween 80.
# The suspension is adjusted to a light transmittancy of 20%. One ml of this suspension is used to inoculate 100 ml of the molten-agar assay medium.
# as §4, §5, §6, §7
# [1] = system: lymphocytic leukemia P388; assay: in vivo lymphocytic leukemia P388 test; set-up: species or system mice; conditions: Mus musculus, P388, ip, 720 h, two single doses four days apart, read-out: T/C × 100 (Percent); for response vs control in vivo at 25 mg/kg: P388, Dose 25 mg/kg intraperitoneally
# Experimental: The in vivo lymphocytic leukemia P388 test is carried out by the United States National Cancer Institute. The animals used are either male or female CD2F, mice. There are six to seven animals per test group. The tumor transplant is by intraperitoneal injection of dilute ascitic fluid containing cells of lymphocytic leukemia P388. The test compounds are administered intraperitoneally in two single doses with a four-day interval between doses at various dose levels following tumor inoculation. The animals are weighed and survivors are recorded on a regular basis for 30 days. A ratio of survival time for treated (T)/ control (C) animals is calculated. The criterion for efficacy is T/C x 100 > 125%. The positive control compound in this test is 1,4-dihydroxy-5,8-[bis[[2-[(2-hydroxyethyl)amino]-ethyl]amino]-9,10-anthracene- dione given at dosages ranging from 12.0 to 0.075 mg/kg. See Cancer Chemotherapy Reports, Part 3, 3, 1 (1972) for a comprehensive discussion of the protocol.
Compound,zone of inhibition at 3000 µg/mL (Aerobacter aerogenes) [mm],zone of inhibition at 3000 µg/mL (Bacillus subtilis; Dose 3.0 mg/ml) [mm],zone of inhibition at 3000 µg/mL (Escherichia coli) [mm],zone of inhibition at 3000 µg/mL (Streptococcus faecalis; Dose 3.0 mg/ml) [mm],zone of inhibition at 3000 µg/mL (Penicillium avellaneum; Dose 3.0 mg/ml) [mm],also measured
"CN(C)CCNCCn1nc2c3c(c(Cl)ccc31)C(=O)c1c(O)ccc(O)c1-2 [7,10-(OH)2; Cl*; (CH2)2NH(CH2)2NMe2, 5-Chloro-2-[2-[[2-(dimethylamino)ethyl]amino]ethyl]-7,10-dihydroxyanthra[1,9-cd]pyrazol-6(2H)-one]",0,14,0,0,0,–
"CN(C)CCn1nc2c3c(c(Cl)ccc31)C(=O)c1c(O)ccc(O)c1-2 [7,10-(OH)2; Cl*; (CH2)2NMe2, 5-Chloro-2-[2-(dimethylamino)ethyl]-7,10-dihydroxyanthra[1,9-cd]pyrazol-6(2H)-one]",15,0,–,0,–,zone of inhibition at 1000 µg/mL (Escherichia coli; Dose 1.0 mg/ml): 14 mm; zone of inhibition at 500 µg/mL (Penicillium avellaneum; Dose 0.5 mg/ml): 15 mm
"CCN(CC)CC(O)Cn1nc2c3c(c(Cl)ccc31)C(=O)c1c(O)ccc(O)c1-2 (stereo not shown) [7,10-(OH)2; Cl*; CH2CHOHCH2NEt2, 5-Chloro-2-[3-(diethylamino)-2-hydroxypropyl]-7,10-dihydroxyanthra[1,9-cd]pyrazol-6(2H)-one]",0,14,–,14,14,zone of inhibition at 500 µg/mL (Escherichia coli; Dose 0.5 mg/ml): 14 mm
"CN(CCO)CCn1nc2c3c(c(Cl)ccc31)C(=O)c1c(O)ccc(O)c1-2 [7,10-(OH)2; Cl*; Me | (CH2)2N (CH2)2OH, 5-Chloro-7,10-dihydroxy-2-[2-[(2-hydroxyethyl)methylamino]ethyl]anthra[1,9-cd]pyrazol-6(2H)-one]",0,0,14,0,0,–
"CCCCCCNc1ccc2c3c(nn2CCN(CC)CC)-c2ccccc2C(=O)c13 [Example 8, 2-[2-(Diethylamino)ethyl]-5-(hexylamino)anthra[1,9-cd]pyrazol-6(2H)-one]",0,–,0,0,16,zone of inhibition at 1000 µg/mL (Bacillus subtilis): 16 mm
"O=C1c2ccccc2-c2nn(CCO)c3ccc(NCCNCCO)c1c23 [Example 12, 2-(2-Hydroxyethyl)-5-[[2-[(2-hydroxyethyl)amino]ethyl]amino]anthra[1,9-cd]pyrazol-6(2H)-one]",–,–,14,16,0,zone of inhibition at 500 µg/mL (Aerobacter aerogenes; Dose 0.5 mg/ml): 14 mm; zone of inhibition at 100 µg/mL (Bacillus subtilis; Dose 0.1 mg/ml): 14 mm
"O=C1c2ccccc2-c2nn(CCO)c3ccc(NCCN4CCOCC4)c1c23 [Example 14, 2-(2-Hydroxyethyl)-5-[[2-(4-morpholinyl)ethyl]amino][1,9-cd]pyrazol-6(2H)-one]",0,–,16,0,0,zone of inhibition at 1000 µg/mL (Bacillus subtilis): 16 mm
"CCN(CC)CCCCNc1ccc2c3c(nn2CCO)-c2ccccc2C(=O)c13 [Example 16, 5-[[4-(Diethylamino)butyl]amino]-2-(2-hydroxyethyl)anthra[1,9-cd]pyrazol-6(2H)-one]",0,–,0,0,0,zone of inhibition at 1000 µg/mL (Bacillus subtilis): 25 mm
"CCN(CC)CCCCCCCNc1ccc2c3c(nn2CCO)-c2ccccc2C(=O)c13 [Example 17, 5-[[7-(Diethylamino)heptyl]amino]-2-(2-hydroxyethyl)anthra[1,9-cd]pyrazol-6(2H)-one]",0,–,0,0,0,zone of inhibition at 1000 µg/mL (Bacillus subtilis): 20 mm
"NCCn1nc2c3c(c(NCCCNCCO)ccc31)C(=O)c1c(O)ccc(O)c1-2 [Example 75, 2-(2-Aminoethyl)-5-[[3-[(2-hydroxyethyl)amino]propyl]amino]-7,10-dihydroxyanthra[1,9-cd]pyrazol-6(2H)-one]",–,–,–,0,0,"zone of inhibition at 500 µg/mL (Bacillus subtilis; Dose 0.5 mg/ml): 14 mm; response vs control in vivo at 1.56 mg/kg ([1]; P388, Dose 1.56 mg/kg intraperitoneally): 181%; response vs control in vivo at 3.12 mg/kg ([1]; P388, Dose 3.12 mg/kg intraperitoneally): 177%; response vs control in vivo at 6.25 mg/kg ([1]; P388, Dose 6.25 mg/kg intraperitoneally): 184%"
O=C1c2c(O)cccc2-c2nn(CCNCCO)c3ccc(NCCNCCO)c1c23 [Example 83],–,–,–,–,–,zone of inhibition at 3000 µg/mL (Bacillus subtilis): 14 mm; zone of inhibition at 3000 µg/mL (Streptococcus faecalis): 0 mm; zone of inhibition at 3000 µg/mL (Penicillium avellaneum): 0 mm
"CNCCNc1ccc2c3c(nn2CCNCCO)-c2cccc(O)c2C(=O)c13 [Example 84, 7-Hydroxy-2-[2-[(2-hydroxyethyl)amino]ethyl]-5-[[2-(methylamino)ethyl]amino]anthra[1,9-cd]pyrazol-6(2H)-one]",–,15,–,14,0,–
"O=C1c2cccc(O)c2-c2nn(CCNCCO)c3ccc(NCCNCCO)c1c23 [Example 85, 10-Hydroxy-2-(2-[(2-hydroxyethyl)amino]ethyl]-5-[[2-[(2-hydroxyethyl)amino]ethyl]amino]anthra[1,9-cd] pyrazol-6(2H)-one]",–,14,–,0,0,"response vs control in vivo at 25 mg/kg [1]: 163%; response vs control in vivo at 50 mg/kg ([1]; P388, Dose 50 mg/kg intraperitoneally): 172%"
"O=C1c2c(O)c(O)cc(O)c2-c2nn(CCNCCO)c3ccc(NCCNCCO)c1c23 [Example 87, 7,8,10-Trihydroxy-2-[2-[(2-hydroxyethyl)amino]ethyl]-5-[[2-[(2-hydroxyethyl)amino]ethyl]amino]-anthra[1,9-cd]pyrazol-6(2H)-one]",–,–,–,–,–,"response vs control in vivo at 12.5 mg/kg ([1]; P388, Dose 12.5 mg/kg intraperitoneally): 257%; response vs control in vivo at 25 mg/kg [1]: 265%"
CN(C)CCNCCNc1ccc2c3c(nn2CCCN)-c2c(O)ccc(O)c2C(=O)c13 [Example 91],–,15,–,0,0,–
